The record followed here is patent US20150148311A1, “NON-SYSTEMIC TGR5 AGONISTS” (Ardelyx, Inc., priority 2011, published 2015).

Data set [1] has as its target T1, human TGR5 (Homo sapiens, UniProt Q8TDU6).
T1 construct: expressed in transfected cells
T1 sequence (Q8TDU6 1-330): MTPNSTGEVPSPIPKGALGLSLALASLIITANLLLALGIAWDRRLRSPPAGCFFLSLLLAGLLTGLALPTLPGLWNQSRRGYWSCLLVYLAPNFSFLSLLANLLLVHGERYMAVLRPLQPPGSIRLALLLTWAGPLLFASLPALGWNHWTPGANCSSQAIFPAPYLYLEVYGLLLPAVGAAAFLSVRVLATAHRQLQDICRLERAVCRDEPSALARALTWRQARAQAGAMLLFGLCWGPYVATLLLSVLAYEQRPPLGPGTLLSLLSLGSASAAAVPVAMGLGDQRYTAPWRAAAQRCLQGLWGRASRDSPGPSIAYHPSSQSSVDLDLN
Description: Cell-based TGR5 assay, HEK293 cells stably expressing human TGR5, cAMP by HTRF. As to conditions: HEK293 cells stably expressing human TGR5, 30 min at 37 C, 0.05 nM to 10 μM, read-out: pEC50 Human TGR5 (converted). Put shortly:
(§1)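 cAMP HTRF read-out, converted to concentration via standard curve, after a 30 min, 37 °C compound exposure in HBSS with 10 mM HEPES pH 7.4 and 0.5 mM IBMX, compounds serially diluted 3-fold from 10 mM DMSO stock then 100-fold. Cells: stable human TGR5 HEK293, or NCI-H716 expressing TGR5 endogenously.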
A general note: Time-resolved FRET reads energy transfer from a long-lived donor to a nearby acceptor.

The target in data set [2] is T2, endogenously expressed TGR5 in NCI H716 (Homo sapiens, UniProt Q8TDU6).
T2 construct: human caecum carcinoma cell line NCI-H716 which endogenously expresses human TGR5; endogenous in cells; host or cells: NCI-H716
T2 sequence (Q8TDU6 1-330): T1 sequence (Q8TDU6 1-330)
Kind of data set: Cell-based TGR5 assay, NCI-H716 cells endogenously expressing human TGR5, cAMP by HTRF. The note with it: 30 min at 37 C, 22 nM to 50 μM, read-out: pEC50 endogenously expressed TGR5 in NCI H716 (converted). Put shortly: as §1

The test system of data set [3] is total GLP-1. Description: In vivo GLP-1 secretion, plasma total GLP-1 8 h post dose. The note with it: Mus musculus, C57BL/6 male mice, food removed, plasma total GLP-1 eight hours after dosing, read-out: GLP-1 fold change over vehicle, Mean. The text has this: (§2) Eight hours later, each mouse was heavily anesthetized with isoflurane, the peritoneal cavity was opened and the gallbladder, with its entire contents, was carefully excised and weighed. Blood was collected from the left ventricle of the heart and processed to plasma in EDTA-coated tubes containing aprotinin and DPPIV inhibitor for measurement of total GLP-1 (K150FCC; Meso Scales Discovery, Gaithersburg Md.).

Data set [4] relates to C57BL/6 male mice. Description: In vivo gallbladder measurement (weight) 8 h post dose. As to conditions: 30 mg/kg; for Gallbladder weight/body weight fold change over vehicle, Significance: 8 h, vs. vehicle, one-way ANOVA, Dunnett's test; for Gallbladder weight/body weight fold change over vehicle, Mean: food removed, eight hours after dosing.
Source text: as §2

Data set [5] in a line: Compound concentration in gall bladder, LC-MS/MS, 8 h post dose. It is filed as in vivo. As to conditions: 30 mg/kg; for Number of Mice with Gallbladder Concentration < LLOQ: mice below LLOQ / mice in group; for concentration at 8 h: male, C57BL/6, mouse, with contents, mice, gallbladder homogenate, read-out: Mean Example Gallbladder Concentration. On the procedure: as §2
Compound concentrations in the gall bladder were determined as follows: each mouse was heavily anesthetized with isoflurane, the peritoneal cavity was opened and the gallbladder, with its entire contents, was carefully excised. After harvest, gall bladders were homogenized in 100 μL water using a micro-homogenizer. Samples of homogenate were diluted 1:5 in water and precipitated with three volumes of neat acetonitrile. After centrifugation, supernatants were analyzed by LC-MS/MS. The level of test compound present in gall bladder samples was interpolated from a standard curve for each individual compound prepared in a matrix of gallbladder homogenate from vehicle treated animals.

Data set [6] can be described thus: Compound plasma concentration, LC-MS/MS, 8 h post dose. It is filed as in vivo. As to conditions: 30 mg/kg; for Number of Mice with Plasma Concentration < LLOQ: mice below LLOQ / mice in group; for concentration at 8 h: male, C57BL/6, mouse, mice, plasma, read-out: Mean Example Plasma Concentration. On the procedure:
as §2
Plasma samples were treated with acetonitrile containing an internal standard, precipitated proteins removed by centrifugation. Supernatants were analyzed by LC-MS/MS and compound concentrations were determined by interpolated from a standard curve prepared in plasma.

For data set [7], the target named is T3, human IBAT (Homo sapiens, UniProt Q12908).
T3 construct: expressed in transfected cells; host or cells: HEK293
T3 sequence (Q12908 1-348): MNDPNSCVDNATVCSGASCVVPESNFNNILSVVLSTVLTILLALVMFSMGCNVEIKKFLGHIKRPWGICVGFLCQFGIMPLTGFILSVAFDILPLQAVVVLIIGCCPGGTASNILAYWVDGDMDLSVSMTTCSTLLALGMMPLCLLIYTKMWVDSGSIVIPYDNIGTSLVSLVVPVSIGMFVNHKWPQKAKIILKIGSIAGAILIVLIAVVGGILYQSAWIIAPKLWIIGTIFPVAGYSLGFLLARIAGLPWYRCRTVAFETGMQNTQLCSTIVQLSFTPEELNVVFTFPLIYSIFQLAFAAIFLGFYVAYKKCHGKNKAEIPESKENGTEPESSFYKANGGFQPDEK
Kind of data set: IBAT counter screen, [3H]taurocholic acid uptake in IBAT-transfected HEK293 cells. As to conditions: read-out: pEC50 human IBAT (converted). It is filed as cell-based. On the procedure:
Following a 40-min incubation, the solution was removed, and the cells were washed twice with uptake buffer. Cells were lysed by addition of 20 μL 0.1% Tween 80 followed by 100 μL scintillation fluid and counted using a TopCount (Perkin Elmer).
A general note: A counterscreen serves to expose hits that act by an unwanted route or on another target.

On to `CN(C(=O)C1(OCc2cc(Cl)c(CCCNC(=O)NC[C@H](O)[C@@H](O)[C@H](O)[C@H](O)CO)cc2Cl)CC1)c1ccccc1OC1CC1` [Example 96, N-(2-cyclopropoxyphenyl)-1-(2,5-dichloro-4-(3-(3-((2S,3R,4R,5R)-2,3,4,5,6-pentahydroxyhexyl)ureido)propyl)benzyloxy)-N-methylcyclopropanecarboxamide], for which the EC50 in data set [1] was less than 100 nM. For the same molecule, in data set [2], the EC50 was less than 100 nM. Further, the response vs control in vivo at 30 mg/kg in data set [3] amounted to 190%. For the same molecule, in data set [4], the “Gallbladder weight/body weight fold change over vehicle, Significance” value was “n.s” and the “Gallbladder weight/body weight fold change over vehicle, Mean” value is given as 0.8 fold change over vehicle. In data set [5], the “Number of Mice with Gallbladder Concentration < LLOQ” value is on record as 0/8 and the concentration at 8 h stood at 1340 nM. In data set [6], the “Number of Mice with Plasma Concentration < LLOQ” value was 8/8 and the concentration at 8 h is less than 2 ng/mL.
For `O=C(OC1(C(=O)N2CCN(C3CC3)c3ccccc32)CC1)c1cc(Cl)ccc1Cl` [Example 166, 1-(4-cyclopropyl-1,2,3,4-tetrahydroquinoxaline-1-carbonyl)cyclopropyl 2,5-dichlorobenzoate], the EC50 in data set [1] is less than 100 nM. Also, the response vs control in vivo at 30 mg/kg in data set [3] stood at 150%. In data set [4], the “Gallbladder weight/body weight fold change over vehicle, Significance” value is “n.s” and the “Gallbladder weight/body weight fold change over vehicle, Mean” value was 1.2 fold change over vehicle. Moreover, in data set [5], the “Number of Mice with Gallbladder Concentration < LLOQ” value was 8/8 and the concentration at 8 h is less than 12 nM. Also, in data set [6], the “Number of Mice with Plasma Concentration < LLOQ” value is on record as 2/8 and the concentration at 8 h worked out at 1.4 ng/mL.
Turning to `O=C(N1CCN(C2CC2)c2ccccc21)C1(NCc2cc(Cl)cc(O)c2Cl)CC1` [Example 167, (4-cyclopropyl-3,4-dihydroquinoxalin-1(2H)-yl)(1-((2,5-dichloro-3-hydroxybenzyl)amino)cyclopropyl)methanone], the EC50 in data set [1] is 126 to 1000 nM. The response vs control in vivo at 30 mg/kg in data set [3] was determined as 130%. Besides, in data set [4], the “Gallbladder weight/body weight fold change over vehicle, Significance” value is recorded as “n.s” and the “Gallbladder weight/body weight fold change over vehicle, Mean” value is given as 1.3 fold change over vehicle. In addition, in data set [5], the “Number of Mice with Gallbladder Concentration < LLOQ” value was 0/8 and the concentration at 8 h came to 3300 nM. Further, in data set [6], the “Number of Mice with Plasma Concentration < LLOQ” value is given as 5/8 and the concentration at 8 h was determined as 2.3 ng/mL.
In the case of `O=C([C@@H]1CSCN1Cc1cc(Cl)cc(O)c1Cl)N1CCN(C2CC2)c2ccccc21` [Example 169, (R)-(4-cyclopropyl-3,4-dihydroquinoxalin-1(2H)-yl)(3-(2,5-dichloro-3-hydroxybenzyl)thiazolidin-4-yl)methanone], in data set [1], the EC50 is less than 100 nM. Further, in data set [3], the response vs control in vivo at 30 mg/kg was found to be 150%. Also, the “Gallbladder weight/body weight fold change over vehicle, Mean” value in data set [4] was found to be 1.9 fold change over vehicle. Moreover, in data set [5], the “Number of Mice with Gallbladder Concentration < LLOQ” value was 0/8 and the concentration at 8 h was determined as 1200 nM. For the same molecule, in data set [6], the “Number of Mice with Plasma Concentration < LLOQ” value is 4/8 and the concentration at 8 h was determined as 2.1 ng/mL.
Turning to `CN(C[C@H](O)[C@@H](O)[C@H](O)[C@H](O)CO)C(=O)NCCCCOc1cc(Cl)c(CN2CSC[C@H]2C(=O)N2CCN(C3CC3)c3ccccc32)cc1Cl` [Example 191], the EC50 in data set [1] is less than 100 nM. For the same molecule, the EC50 in data set [2] is 126 to 1000 nM. Moreover, the response vs control in vivo at 30 mg/kg in data set [3] was determined as 150%. In data set [4], the “Gallbladder weight/body weight fold change over vehicle, Significance” value is recorded as “n.s” and the “Gallbladder weight/body weight fold change over vehicle, Mean” value is listed as 1.0 fold change over vehicle. Moreover, in data set [5], the “Number of Mice with Gallbladder Concentration < LLOQ” value is on record as 0/8 and the concentration at 8 h turned out to be 100 nM. Besides, in data set [6], the “Number of Mice with Plasma Concentration < LLOQ” value was 8/8 and the concentration at 8 h is less than 0.5 ng/mL.
As to `O=C(CCCCc1cc(Cl)c(COC2(C(=O)N3CCN(C4CC4)c4ccccc43)CC2)cc1Cl)NC[C@H](O)[C@@H](O)[C@H](O)[C@H](O)CO` [Example 193], the EC50 in data set [1] is less than 100 nM. In data set [3], the response vs control in vivo at 30 mg/kg was 90%. Also, in data set [4], the “Gallbladder weight/body weight fold change over vehicle, Significance” value was “n.s” and the “Gallbladder weight/body weight fold change over vehicle, Mean” value was found to be 1.1 fold change over vehicle. Further, in data set [5], the “Number of Mice with Gallbladder Concentration < LLOQ” value is given as 0/8 and the concentration at 8 h stood at 900 nM. Also, in data set [6], the “Number of Mice with Plasma Concentration < LLOQ” value is 5/8 and the concentration at 8 h turned out to be 5.2 ng/mL. The EC50 in data set [7] is greater than 25100 nM.
Consider `O=C(CCCCc1cc(Cl)c(CNC2(C(=O)N3CCN(C4CC4)c4ccccc43)CC2)cc1Cl)NC[C@H](O)[C@@H](O)[C@H](O)[C@H](O)CO` [Example 218], for which, in data set [1], the EC50 is less than 100 nM. Also, the EC50 in data set [2] is less than 100 nM. The response vs control in vivo at 30 mg/kg in data set [3] turned out to be 140%. Besides, in data set [4], the “Gallbladder weight/body weight fold change over vehicle, Significance” value is on record as “n.s” and the “Gallbladder weight/body weight fold change over vehicle, Mean” value was 1.0 fold change over vehicle. Moreover, in data set [5], the “Number of Mice with Gallbladder Concentration < LLOQ” value is 0/8 and the concentration at 8 h came to 100 nM. Besides, in data set [6], the “Number of Mice with Plasma Concentration < LLOQ” value was 2/8 and the concentration at 8 h was 0.7 ng/mL. Besides, the EC50 in data set [7] is greater than 25100 nM.
`CN(C(=O)C1(OCc2cc(Cl)c(CCCCCNC(=O)NC[C@H](O)[C@@H](O)[C@H](O)[C@H](O)CO)cc2Cl)CC1)c1ccccc1OC1CC1` [Example 258]: in data set [1], the EC50 is less than 100 nM. Also, the response vs control in vivo at 30 mg/kg in data set [3] is 110%. In data set [4], the “Gallbladder weight/body weight fold change over vehicle, Significance” value is “n.s” and the “Gallbladder weight/body weight fold change over vehicle, Mean” value is 1.1 fold change over vehicle. For the same molecule, in data set [5], the “Number of Mice with Gallbladder Concentration < LLOQ” value was 0/8 and the concentration at 8 h is 700 nM. Further, in data set [6], the “Number of Mice with Plasma Concentration < LLOQ” value is 7/8 and the concentration at 8 h came out at 9.4 ng/mL.
With `CN(C(=O)C1(OCc2cc(Cl)c(CCCCC(=O)NC[C@H](O)[C@@H](O)[C@H](O)[C@H](O)CO)cc2Cl)CC1)c1ccccc1OC1CC1` [Example 259], in data set [1], the EC50 is less than 100 nM. In addition, the response vs control in vivo at 30 mg/kg in data set [3] was 140%. Also, in data set [4], the “Gallbladder weight/body weight fold change over vehicle, Significance” value is reported as “n.s” and the “Gallbladder weight/body weight fold change over vehicle, Mean” value is reported as 0.9 fold change over vehicle. Also, in data set [5], the “Number of Mice with Gallbladder Concentration < LLOQ” value was 0/8 and the concentration at 8 h was 100 nM. In addition, in data set [6], the “Number of Mice with Plasma Concentration < LLOQ” value is 6/8 and the concentration at 8 h is 1.1 ng/mL.
